Experimental data from ChEMBL document CHEMBL4411312, “Design, Synthesis, and Biological Evaluation of New 1-(Aryl-1 H-pyrrolyl)(phenyl)methyl-1 H-imidazole Derivatives as Antiprotozoal Agents” (J Med Chem, 2019).

How the values were obtained:
Cytochrome P450 3A4 = Cytochrome P450 3A4 (Homo sapiens, UniProt P08684); experiment: Inhibition of human CYP3A4 in presence of NADPH by luciferase reporter gene assay; type: ADME
Cytochrome P450 2D6 = Cytochrome P450 2D6 (Homo sapiens, UniProt P10635); experiment: Inhibition of human CYP2D6 in presence of NADPH by luciferase reporter gene assay; type: ADME
Cytochrome P450 1A2 = molecular target: T1, Cytochrome P450 1A2 (Homo sapiens, UniProt P05177); experiment: Inhibition of human CYP1A2 in presence of NADPH by luciferase reporter gene assay; type: ADME
T1 sequence (P05177 whole entry): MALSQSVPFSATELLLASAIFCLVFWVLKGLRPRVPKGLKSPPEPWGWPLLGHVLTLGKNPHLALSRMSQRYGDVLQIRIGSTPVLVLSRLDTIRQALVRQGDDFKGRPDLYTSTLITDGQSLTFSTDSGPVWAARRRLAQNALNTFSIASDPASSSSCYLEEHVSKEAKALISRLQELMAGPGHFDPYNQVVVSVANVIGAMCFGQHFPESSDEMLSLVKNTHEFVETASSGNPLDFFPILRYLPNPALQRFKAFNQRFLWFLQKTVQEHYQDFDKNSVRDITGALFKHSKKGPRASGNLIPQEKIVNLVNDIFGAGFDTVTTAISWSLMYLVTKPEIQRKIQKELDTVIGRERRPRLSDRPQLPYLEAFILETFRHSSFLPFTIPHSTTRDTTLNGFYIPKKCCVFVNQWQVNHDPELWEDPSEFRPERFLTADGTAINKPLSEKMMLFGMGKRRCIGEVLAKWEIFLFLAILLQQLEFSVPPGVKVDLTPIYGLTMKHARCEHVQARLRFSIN

Trypanosoma cruzi [1] = experiment: Antiprotozoal activity against Trypanosoma cruzi Tulahuen C2C4 amastigotes infected in rat L6 cells after 96 hrs by inverted microscopic analysis; type: functional, organism-based; settings: Tulahuen C2C4, L6, 96 h
CYP1A2 = molecular target: T2, CYP1A2 (Homo sapiens, UniProt P05177); experiment: Safety index, ratio of IC50 for test compound to IC50 for furafylline for inhibition of human CYP1A2 in presence of NADPH by luciferase reporter gene assay; type: ADME; settings: read-out: Ratio IC50
T2 sequence (P05177 whole entry): T1 sequence (P05177 whole entry)

[2] = Toxicity in BALB/c mouse infected with Trypanosoma cruzi CL Brener trypomastigotes assessed as lack of grooming at 25 mg/kg, ip bid treated for 4 consecutive days starting at 3 days post infection; type: organism-based; settings: in vivo, 72 h
[3] = Selectivity index, ratio of CC50 for rat L6 cels to IC50 for Leishmania donovani MHOM/ET/67/L82 axenic amastigote; type: toxicity; settings: L6 cells, read-out: Ratio IC50
[4] = Toxicity in BALB/c mouse infected with Trypanosoma cruzi CL Brener trypomastigotes assessed as reduced mobility at 25 mg/kg, ip bid treated for 4 consecutive days starting at 3 days post infection; type: organism-based; settings: in vivo, 72 h
Trypanosoma cruzi [5] = experiment: Potency index, ratio of benznidazole IC50 to compound IC50 for Trypanosoma cruzi Tulahuen C2C4 amastigotes infected in rat L6 cells after 96 hrs by inverted microscopic analysis; type: functional
Trypanosoma cruzi [6] = experiment: Antiprotozoal activity against Trypanosoma cruzi CL Brener trypomastigotes infected in BALB/c mouse assessed as reduction in parasitemia at 25 mg/kg, ip bid treated for 4 consecutive days starting at 3 days post infection by bioluminescence assay relative to control; type: functional; set-up: scale not given: the % may be the effect or the level left
[7] = Toxicity in BALB/c mouse infected with Trypanosoma cruzi CL Brener trypomastigotes assessed as loss of body weight at 25 mg/kg, ip bid treated for 4 consecutive days starting at 3 days post infection; type: organism-based; settings: in vivo, 72 h
Plasmodium falciparum = experiment: Antiprotozoal activity against erythrocytic stage of Plasmodium falciparum K1 after 48 hrs by [3H]- hypoxanthine incorporation assay; type: functional, organism-based
Leishmania donovani = experiment: Antiprotozoal activity against Leishmania donovani MHOM/ET/67/L82 axenic amastigote after 72 hrs by inverted microscopic analysis; type: functional, organism-based; settings: MHOM/ET/67/L82, 72 h
[8] = Toxicity in BALB/c mouse infected with Trypanosoma cruzi CL Brener trypomastigotes assessed as hunched posture at 25 mg/kg, ip bid treated for 4 consecutive days starting at 3 days post infection; type: organism-based; settings: in vivo, 72 h
[9] = molecular target: Sterol 14-alpha demethylase (Trypanosoma cruzi (strain CL Brener), UniProt Q7Z1V1); experiment: Binding affinity to Trypanosoma cruzi CYP51 by UV-vis spectrophotometry
[10] = Cytotoxicity against rat L6 cels assessed as reduction in cell viability after 72 hrs by Alamar Blue dye-based fluorometric analysis; settings: L6 cells
[11] = Selectivity index, ratio of CC50 for rat L6 cels to IC50 for erythrocytic stage of Plasmodium falciparum K1; type: toxicity; settings: L6 cells, read-out: Ratio IC50
[12] = system: Trypanosoma brucei rhodesiense; experiment: Antiprotozoal activity against Trypanosoma brucei rhodesiense STIB900 trypomastigotes after 72 hrs by Alamar Blue dye-based fluorometric analysis; type: functional, organism-based; settings: STIB900, 72 h

Sequence of Cytochrome P450 3A4 (P08684 whole entry): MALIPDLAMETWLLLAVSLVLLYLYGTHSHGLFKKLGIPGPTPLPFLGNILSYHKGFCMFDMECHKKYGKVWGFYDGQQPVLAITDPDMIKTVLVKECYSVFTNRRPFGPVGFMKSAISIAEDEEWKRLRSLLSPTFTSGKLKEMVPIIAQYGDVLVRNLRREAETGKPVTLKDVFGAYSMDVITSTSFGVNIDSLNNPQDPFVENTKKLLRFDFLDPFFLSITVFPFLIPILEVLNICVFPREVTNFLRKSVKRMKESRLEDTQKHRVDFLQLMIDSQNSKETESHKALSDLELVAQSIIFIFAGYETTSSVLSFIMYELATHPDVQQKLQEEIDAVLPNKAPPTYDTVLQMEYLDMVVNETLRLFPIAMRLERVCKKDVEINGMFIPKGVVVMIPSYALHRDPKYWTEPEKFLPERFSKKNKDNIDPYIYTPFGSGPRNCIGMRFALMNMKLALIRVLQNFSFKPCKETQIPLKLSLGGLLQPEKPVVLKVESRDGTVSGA
Sequence of Cytochrome P450 2D6 (P10635 whole entry): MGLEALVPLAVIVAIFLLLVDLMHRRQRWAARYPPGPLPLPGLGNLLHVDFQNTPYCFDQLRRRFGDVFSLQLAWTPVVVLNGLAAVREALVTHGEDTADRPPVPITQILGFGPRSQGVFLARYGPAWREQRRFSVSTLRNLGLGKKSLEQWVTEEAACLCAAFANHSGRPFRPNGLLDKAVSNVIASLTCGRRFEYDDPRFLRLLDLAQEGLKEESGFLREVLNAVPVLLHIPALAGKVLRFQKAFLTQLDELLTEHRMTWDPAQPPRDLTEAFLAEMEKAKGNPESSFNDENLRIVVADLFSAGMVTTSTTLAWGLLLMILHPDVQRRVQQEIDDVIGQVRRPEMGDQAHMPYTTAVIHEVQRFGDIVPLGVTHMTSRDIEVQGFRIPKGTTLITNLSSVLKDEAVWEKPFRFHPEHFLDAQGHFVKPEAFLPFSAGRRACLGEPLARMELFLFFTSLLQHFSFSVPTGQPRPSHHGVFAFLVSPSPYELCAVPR
Sequence of Sterol 14-alpha demethylase (Q7Z1V1 whole entry): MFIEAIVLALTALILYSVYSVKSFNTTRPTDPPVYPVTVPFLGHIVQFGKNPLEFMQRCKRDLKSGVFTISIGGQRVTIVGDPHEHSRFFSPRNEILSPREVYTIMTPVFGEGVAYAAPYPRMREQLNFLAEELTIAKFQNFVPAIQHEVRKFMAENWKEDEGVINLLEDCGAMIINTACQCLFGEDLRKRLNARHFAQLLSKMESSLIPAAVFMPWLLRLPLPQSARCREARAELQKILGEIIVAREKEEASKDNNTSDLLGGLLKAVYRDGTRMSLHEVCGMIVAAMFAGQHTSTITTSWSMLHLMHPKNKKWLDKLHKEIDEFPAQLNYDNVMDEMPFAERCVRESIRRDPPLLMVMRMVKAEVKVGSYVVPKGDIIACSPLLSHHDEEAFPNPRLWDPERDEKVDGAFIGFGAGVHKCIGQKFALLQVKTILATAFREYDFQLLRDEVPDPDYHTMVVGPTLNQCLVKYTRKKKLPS

Row | Structure (SMILES) | IC50 (Cytochrome P450 3A4) [µM] | IC50 (Cytochrome P450 2D6) [µM] | IC50 (Cytochrome P450 1A2) [µM] | IC50 (Trypanosoma cruzi [1]) [µM] | selectivity ratio (CYP1A2) | Activity [2] | selectivity ratio [3] | Activity [4] | Ratio IC50 (Trypanosoma cruzi [5]) | Activity (Trypanosoma cruzi [6]) [%] | Activity [7] | IC50 (Plasmodium falciparum) [µM] | IC50 (Leishmania donovani) [µM] | Activity [8] | Kd [9] [µM] | CC50 at 72 h [10] [µM] | selectivity ratio [11] | IC50 [12] [µM]
1 | Clc1ccc(-c2c[nH]cc2C(c2ccc(Cl)cc2Cl)n2ccnc2)cc1 (racemic) | 0.8 | 1.3 | 7 | 0.035 | 3 | – | – | – | – | – | – | – | – | – | – | – | – | –
2 | Clc1ccc(-c2cc(C(c3ccc(Cl)cc3)n3ccnc3)c[nH]2)cc1 (configuration not stated) | 1.4 | 4 | 0.4 | 0.003 | – | Non-Toxic | 2 | Non-Toxic | 330 - 825 | 99.5 | Non-Toxic | 0.78 | 3.01 | Non-Toxic | 5.5 | 6.65 | 9 | 7.39
